Assay results from article PMC5724689, “Increased Conformational Flexibility of a Macrocycle–Receptor Complex Contributes to Reduced Dissociation Rates” (Chemistry (Weinheim an Der Bergstrasse, Germany), 2017).

Experiments:
[1] = target: T1, 14-3-3ζ (14‐3‐3 isoform ζ) (Homo sapiens, UniProt P63104); assay: biochemical; type: binding; settings: for koff: 19F NMR line shape analysis, slow exchange, 50 mM HEPES, 100 mM NaCl, 2 mM MgCl2, 1% DMSO, 10% D2O, pH 7.4, room temperature, error from fitting procedure (Equation S1), read-out: dissociation rate koff (NMR); for association rate kon = koff × Kd^-1 (Figure 2b) / kon: calculated from koff (19F NMR) and ITC-derived Kd; for kon: read-out: association rate kon = koff × Kd^-1
T1 construct: 14-3-3ζ (aa 1-245) with remaining His-Tag; made in house
T1 sequence (P63104 1-245): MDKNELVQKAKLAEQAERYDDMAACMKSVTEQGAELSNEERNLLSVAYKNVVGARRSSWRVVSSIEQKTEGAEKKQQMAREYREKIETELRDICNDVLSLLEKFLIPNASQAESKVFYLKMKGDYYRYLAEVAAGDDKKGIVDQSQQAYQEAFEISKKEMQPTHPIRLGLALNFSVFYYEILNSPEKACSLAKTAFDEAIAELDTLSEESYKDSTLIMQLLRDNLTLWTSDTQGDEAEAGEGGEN

[2] = target: T1, 14-3-3ζ (14‐3‐3 isoform ζ); assay: biochemical; type: binding; settings: ITC, T = 303.15 K, pH 7.4; mean value of 3 runs

| SMILES | koff [1] [s⁻¹] | association rate kon = koff × Kd^-1 (Figure 2b) [1] [s^-1M^-1 10^6] | kon [1] [M⁻¹ s⁻¹] | Kd [2] [nM] |
| --- | --- | --- | --- | --- |
| CC(C)C[C@H](NC(=O)[C@H](CC(=O)O)NC(=O)[C@H](CC(C)C)NC(=O)[C@]1(C)CCCCCCCC[C@@](C)(NC(=O)CNC(=O)[C@H](CCC(N)=O)NC(=O)CNC(=O)C(F)(F)F)C(=O)N[C@@H](CC(C)C)C(=O)N[C@@H](CC(=O)O)C(=O)N1)C(=O)N[C@@H](C)C(=O)N[C@@H](CO)C(N)=O [MC18] | 1.58 | 4.38 ±0.47 | 4.38e+06 | 362 |
| CC(C)C[C@H](NC(=O)[C@H](CC(=O)O)NC(=O)[C@H](CC(C)C)NC(=O)[C@]1(C)CCCCCCCCCCCC[C@](C)(NC(=O)CNC(=O)[C@H](CCC(N)=O)NC(=O)CNC(=O)C(F)(F)F)C(=O)N[C@@H](CC(C)C)C(=O)N[C@@H](CC(=O)O)C(=O)N1)C(=O)N[C@@H](C)C(=O)N[C@@H](CO)C(N)=O [MC22] | 0.45 | 4.12 ±0.39 | 4.12e+06 | 111 |
